From US20240261367A1, “CYCLIC PEPTIDE IMMUNOMODULATORS” (priority 2021, published 2024)
Starred links: 1 amine or outer side, 2 acyl side, 3 side chain; linkers in the order of their positions; H or OH if unused. Positions of bridges follow the written chain, without caps; N, C: chain ends. Non-standard residues stand in square brackets, D forms with d. Residues, ends and D or L forms follow the SMILES beside them. X2 = COC(=O)CCCCCCCCCCCCCCCCC(=O)N[C@@H](CCC(=O)NCCOCCOCCOCCOCCOCCOCCOCCOCCOCCOCCOCCn1cc(C[C@H](NC(=N)CNC(=O)[C@H](CSCC(=O)[*:1])NC(=N)[C@H](CC(C)C)N[*:2])C(=O)OC)nn1)C(=O)OC; Ala(1-CH2COOH-inden-3-yl) = N[C@@H](CC1=CC(CC(=O)O)c2ccccc21)C(=O)O; Hyp = O=C(O)[C@@H]1C[C@@H](O)CN1; NMeNle = CCCC[C@H](NC)C(=O)O; NMeA = CN[C@@H](C)C(=O)O; Dab = NCC[C@H](N)C(=O)O; Dap = NC[C@H](N)C(=O)O

Molecular target: T1, PD-1/PD-L1 (Homo sapiens, UniProt Q9NZQ7)
T1 construct: TVMV protease site linker (C); made in house; host or cells: HEK293T cells
Test: PD-1/PD-L1 Homogenous Time-Resolved Fluorescence (HTRF) binding assay
Settings: PD-L1-His (10 nM) pre-incubated with inhibitor 15 m, then PD-1-Ig (20 nM)
From the text: Methods for Testing the Ability of Macrocyclic Peptides to Compete for the Binding of PD-1 to PD-L1 Using Homogenous Time-Resolved Fluorescence (HTRF) Binding Assays
The ability of the compounds of formula (I) to bind to PD-L1 was investigated using a PD-1/PD-L1 Homogenous Time-Resolved Fluorescence (HTRF) binding assay.
Homogenous Time-Resolved Fluorescence (HTRF) Binding Assay
The interaction of PD-1 and PD-L1 can be assessed using soluble, purified preparations of the extracellular domains of the two proteins. The PD-1 and PD-L1 protein extracellular domains were expressed as fusion proteins with detection tags, for PD-1, the tag was the Fc portion of Immunoglobulin (PD-1-Ig) and for PD-L1 it was the 6 histidine motif (PD-L1-His). All binding studies were performed in an HTRF assay buffer consisting of dPBS supplemented with 0.1% […] bovine serum albumin and 0.05% (v/v) Tween-20. […] HTRF detection was achieved using europium crypate-labeled anti-Ig (1 nM final) and allophycocyanin (APC) labeled anti-His (20 nM final). Antibodies were diluted in HTRF detection buffer and 5 μl was dispensed on top of the binding reaction. The reaction mixture was allowed to equilibrate for 30 minutes and the resulting signal (665 nm/620 nm ratio) was obtained using an EnVision fluorometer. Additional binding assays were established between the human proteins PD-1-Ig/PD-L2-His (20 & 5 nM, respectively) and CD80-His/PD-L1-Ig (100 & 10 nM, respectively).
Recombinant Proteins: Human PD-1 (25-167) with a C-terminal human Fc domain of immunoglobulin G (Ig) epitope tag [hPD-1 (25-167)-3S-IG] and human PD-L1 (18-239) with a C-terminal His epitope tag [hPD-L1(18-239)-TVMV-His] were expressed in HEK293T cells and purified sequentially by ProteinA affinity chromatography and size exclusion chromatography. Human PD-L2-His and CD80-His was obtained through commercial sources.
Table 1 lists the IC50 values for representative examples of this disclosure measured in the PD-1/PD-L1 Homogenous Time-Resolved Fluorescence (HTRF) binding assay.

T1 sequence (Q9NZQ7 18-239): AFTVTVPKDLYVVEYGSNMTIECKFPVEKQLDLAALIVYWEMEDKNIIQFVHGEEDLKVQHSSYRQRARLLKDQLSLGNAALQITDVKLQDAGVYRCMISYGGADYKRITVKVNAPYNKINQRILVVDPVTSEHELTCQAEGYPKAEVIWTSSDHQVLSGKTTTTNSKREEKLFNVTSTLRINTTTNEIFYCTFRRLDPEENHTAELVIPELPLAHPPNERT

Row | SMILES | IC50 [nM]
1 | CCCC[C@H]1C(=O)N(C)[C@@H](CCCC)C(=O)N[C@@H](CC(C)C)C(=N)N[C@H](C(=O)NCC(=N)N[C@@H](Cc2cn(CCOCCOCCOCCOCCOCCOCCOCCOCCOCCOCCOCCNC(=O)CC[C@H](NC(=O)CCCCCCCCCCCCCCCCC(=O)OC)C(=O)OC)nn2)C(=O)OC)CSCC(=O)N[C@@H](Cc2ccc(O)cc2)C(=O)N(C)[C@@H](C)C(=O)N[C@@H](CC(N)=O)C(=O)N2CCC[C@H]2C(=O)N[C@@H](CN)C(=O)N[C@@H](CC(C)C)C(=O)N2C[C@H](O)C[C@H]2C(=O)N[C@@H](Cc2c[nH]c3ccccc23)C(=O)N[C@@H](CCN)C(=O)N[C@@H](CC2=CC(CC(=O)O)c3ccccc32)C(=O)N1C (stereo partly drawn) [Example 1012] (Y[NMeA]NP[Dap]L[Hyp]W[Dab][Ala(1-CH2COOH-inden-3-yl)][NMeNle][NMeNle]; linker N-C via X2) | 11
2 | CCCC[C@H]1C(=O)N(C)[C@@H](CCCC)C(=O)N[C@@H](CC(C)C)C(=O)N[C@H](C(=O)NCC(=O)N[C@@H](Cc2cn(CCOCCOCCOCCOCCOCCOCCOCCOCCOCCOCCOCCNC(=O)CC[C@H](NC(=O)CCCCCCCCCCCCCCCCC(=O)O)C(=O)O)nn2)C(=O)O)CSCC(=O)N[C@@H](Cc2ccc(O)cc2)C(=O)N(C)[C@@H](C)C(=O)N[C@@H](CC(N)=O)C(=O)N2CCC[C@H]2C(=O)N[C@@H](CNC(=O)OCCC)C(=O)N[C@@H](CC(C)C)C(=O)N2C[C@H](O)C[C@H]2C(=O)N[C@@H](Cc2c[nH]c3ccccc23)C(=O)N[C@@H](CCN)C(=O)N[C@@H](CC2=CC(CC(=O)O)c3ccccc32)C(=O)N1C (stereo partly drawn) [Example 1013] | 9.3
3 | CCCC[C@H]1C(=O)N(C)[C@@H](CCCC)C(=O)N[C@@H](CC(C)C)C(=O)N[C@H](C(=O)NCC(=O)N[C@@H](Cc2cn(CCOCCOCCOCCOCCOCCOCCOCCOCCOCCOCCOCCNC(=O)CC[C@H](NC(=O)CCCCCCCCCCCCCCCCC(=O)O)C(=O)O)nn2)C(=O)O)CSCC(=O)N[C@@H](Cc2ccc(O)cc2)C(=O)N(C)[C@@H](C)C(=O)N[C@@H](CC(N)=O)C(=O)N2CCC[C@H]2C(=O)N[C@@H](CNC(=O)OCC(C)C)C(=O)N[C@@H](CC(C)C)C(=O)N2C[C@H](O)C[C@H]2C(=O)N[C@@H](Cc2c[nH]c3ccccc23)C(=O)N[C@@H](CCN)C(=O)N[C@@H](CC2=CC(CC(=O)O)c3ccccc32)C(=O)N1C (stereo partly drawn) [Example 1014] | 3.1
4 | CCCC[C@H]1C(=O)N(C)[C@@H](CCCC)C(=O)N[C@@H](CC(C)C)C(=O)N[C@H](C(=O)NCC(=O)N[C@@H](Cc2cn(CCOCCOCCOCCOCCOCCOCCOCCOCCOCCOCCOCCNC(=O)CC[C@H](NC(=O)CCCCCCCCCCCCCCCCC(=O)O)C(=O)O)nn2)C(=O)O)CSCC(=O)N[C@@H](Cc2ccc(O)cc2)C(=O)N(C)[C@@H](C)C(=O)N[C@@H](CC(N)=O)C(=O)N2CCC[C@H]2C(=O)N[C@@H](CNC(=O)OC)C(=O)N[C@@H](CC(C)C)C(=O)N2C[C@H](O)C[C@H]2C(=O)N[C@@H](Cc2c[nH]c3ccccc23)C(=O)N[C@@H](CCN)C(=O)N[C@@H](CC2=CC(CC(=O)O)c3ccccc32)C(=O)N1C (stereo partly drawn) [Example 1016] | 13
5 | CCCC[C@H]1C(=O)N(C)[C@@H](CCCC)C(=O)N[C@@H](CC(C)C)C(=O)N[C@H](C(=O)NCC(=O)N[C@@H](Cc2cn(CCOCCOCCOCCOCCOCCOCCOCCOCCOCCOCCOCCNC(=O)CC[C@H](NC(=O)CCCCCCCCCCCCCCCCC(=O)O)C(=O)O)nn2)C(=O)O)CSCC(=O)N[C@@H](Cc2ccc(O)cc2)C(=O)N(C)[C@@H](C)C(=O)N[C@@H](CC(N)=O)C(=O)N2CCC[C@H]2C(=O)N[C@@H](CNC(=O)OC)C(=O)N[C@@H](CC(C)C)C(=O)N2C[C@H](O)C[C@H]2C(=O)N[C@@H](Cc2c[nH]c3ccccc23)C(=O)N[C@@H](CCNC(=O)OC)C(=O)N[C@@H](CC2=CC(CC(=O)O)c3ccccc32)C(=O)N1C (stereo partly drawn) [Example 1019] | 6.3
6 | CCCC[C@H]1C(=O)N(C)[C@@H](CCCC)C(=O)N[C@@H](CC(C)C)C(=O)N[C@H](C(=O)NCC(=O)N[C@@H](Cc2cn(CCOCCOCCOCCOCCOCCOCCOCCOCCOCCOCCOCCNC(=O)CC[C@H](NC(=O)CCCCCCCCCCCCCCCCC(=O)O)C(=O)O)nn2)C(=O)O)CSCC(=O)N[C@@H](Cc2ccc(O)cc2)C(=O)N(C)[C@@H](C)C(=O)N[C@@H](CC(N)=O)C(=O)N2CCC[C@H]2C(=O)N[C@@H](CNC(=O)OCc2oc(=O)oc2C)C(=O)N[C@@H](CC(C)C)C(=O)N2C[C@H](O)C[C@H]2C(=O)N[C@@H](Cc2c[nH]c3ccccc23)C(=O)N[C@@H](CCN)C(=O)N[C@@H](CC2=CC(CC(=O)O)c3ccccc32)C(=O)N1C (stereo partly drawn) [Example 1021] | 27
7 | CCCC[C@H]1C(=O)N(C)[C@@H](CCCC)C(=O)N[C@@H](CC(C)C)C(=O)N[C@H](C(=O)NCC(=O)N[C@@H](Cc2cn(CCOCCOCCOCCOCCOCCOCCOCCOCCOCCOCCOCCNC(=O)CC[C@H](NC(=O)CCCCCCCCCCCCCCCCC(=O)O)C(=O)O)nn2)C(=O)O)CSCC(=O)N[C@@H](Cc2ccc(O)cc2)C(=O)N(C)[C@@H](C)C(=O)N[C@@H](CC(N)=O)C(=O)N2CCC[C@H]2C(=O)N[C@@H](CNC(=O)OCc2oc(=O)oc2C)C(=O)N[C@@H](CC(C)C)C(=O)N2C[C@H](O)C[C@H]2C(=O)N[C@@H](Cc2c[nH]c3ccccc23)C(=O)N[C@@H](CCNC(=O)CCc2oc(=O)oc2C)C(=O)N[C@@H](CC2=CC(CC(=O)O)c3ccccc32)C(=O)N1C (stereo partly drawn) [Example 1022] | 6.8
8 | CCCC[C@H]1C(=O)N(C)[C@@H](CCCC)C(=O)N[C@@H](CC(C)C)C(=O)N[C@H](C(=O)NCC(=O)N[C@@H](Cc2cn(CCOCCOCCOCCOCCOCCOCCOCCOCCOCCOCCOCCNC(=O)CC[C@H](NC(=O)CCCCCCCCCCCCCCCCC(=O)O)C(=O)OCC)nn2)C(=O)O)CSCC(=O)N[C@@H](Cc2ccc(O)cc2)C(=O)N(C)[C@@H](C)C(=O)N[C@@H](CC(N)=O)C(=O)N2CCC[C@H]2C(=O)N[C@@H](CN)C(=O)N[C@@H](CC(C)C)C(=O)N2C[C@H](O)C[C@H]2C(=O)N[C@@H](Cc2c[nH]c3ccccc23)C(=O)N[C@@H](CCN)C(=O)N[C@@H](CC2=CC(CC(=O)O)c3ccccc32)C(=O)N1C (stereo partly drawn) [Example 1024] | 13
9 | CCCC[C@H]1C(=O)N(C)[C@@H](CCCC)C(=O)N[C@@H](CC(C)C)C(=O)N[C@H](C(=O)NCC(=O)N[C@@H](Cc2cn(CCOCCOCCOCCOCCOCCOCCOCCOCCOCCOCCOCCNC(=O)CC[C@H](NC(=O)CCCCCCCCCCCCCCCCC(=O)O)C(=O)O)nn2)C(=O)OCC)CSCC(=O)N[C@@H](Cc2ccc(O)cc2)C(=O)N(C)[C@@H](C)C(=O)N[C@@H](CC(N)=O)C(=O)N2CCC[C@H]2C(=O)N[C@@H](CN)C(=O)N[C@@H](CC(C)C)C(=O)N2C[C@H](O)C[C@H]2C(=O)N[C@@H](Cc2c[nH]c3ccccc23)C(=O)N[C@@H](CCN)C(=O)N[C@@H](CC2=CC(CC(=O)O)c3ccccc32)C(=O)N1C (stereo partly drawn) [Example 1025] | 12
10 | CCCC[C@H]1C(=O)N(C)[C@@H](CCCC)C(=O)N[C@@H](CC(C)C)C(=O)N[C@H](C(=O)NCC(=O)N[C@@H](Cc2cn(CCOCCOCCOCCOCCOCCOCCOCCOCCOCCOCCOCCNC(=O)CC[C@H](NC(=O)CCCCCCCCCCCCCCCCC(=O)O)C(=O)OC)nn2)C(=O)O)CSCC(=O)N[C@@H](Cc2ccc(O)cc2)C(=O)N(C)[C@@H](C)C(=O)N[C@@H](CC(N)=O)C(=O)N2CCC[C@H]2C(=O)N[C@@H](CN)C(=O)N[C@@H](CC(C)C)C(=O)N2C[C@H](O)C[C@H]2C(=O)N[C@@H](Cc2c[nH]c3ccccc23)C(=O)N[C@@H](CCN)C(=O)N[C@@H](CC2=CC(CC(=O)O)c3ccccc32)C(=O)N1C (stereo partly drawn) [Example 1026] | 2.9
11 | CCCC[C@H]1C(=O)N(C)[C@@H](CCCC)C(=O)N[C@@H](CC(C)C)C(=O)N[C@H](C(=O)NCC(=O)N[C@@H](Cc2cn(CCOCCOCCOCCOCCOCCOCCOCCOCCOCCOCCOCCNC(=O)CC[C@H](NC(=O)CCCCCCCCCCCCCCCCC(=O)O)C(=O)O)nn2)C(=O)O)CSCC(=O)N[C@@H](Cc2ccc(O)cc2)C(=O)N(C)[C@@H](C)C(=O)N[C@@H](CC(N)=O)C(=O)N2CCC[C@H]2C(=O)N[C@@H](CNC(=O)O[C@H]2CC[C@@]3(C)C(CC[C@H]4[C@@H]5CC[C@H]([C@H](C)CCCC(C)C)[C@@]5(C)CC[C@@H]43)C2)C(=O)N[C@@H](CC(C)C)C(=O)N2C[C@H](O)C[C@H]2C(=O)N[C@@H](Cc2c[nH]c3ccccc23)C(=O)N[C@@H](CC)C(=O)N[C@@H](CC2=CC(CC(=O)O)c3ccccc32)C(=O)N1C (stereo partly drawn) [Example 1027] | 110
12 | CCCC[C@H]1C(=O)N(C)[C@@H](CCCC)C(=O)N[C@@H](CC(C)C)C(=O)N[C@H](C(=O)NCC(=O)N[C@@H](Cc2cn(CCOCCOCCOCCOCCOCCOCCOCCOCCOCCOCCOCCNC(=O)CC[C@H](NC(=O)CCCCCCCCCCCCCCCCC(=O)OC)C(=O)OC)nn2)C(=O)OC)CSCC(=O)N[C@@H](Cc2ccc(O)cc2)C(=O)N(C)[C@@H](C)C(=O)N[C@@H](CC(N)=O)C(=O)N2CCC[C@H]2C(=O)N[C@@H](CNC(=O)OC(C)(C)C)C(=O)N[C@@H](CC(C)C)C(=O)N2C[C@H](O)C[C@H]2C(=O)N[C@@H](Cc2c[nH]c3ccccc23)C(=O)N[C@@H](CCNC(=O)OC(C)(C)C)C(=O)N[C@@H](Cc2cn(CC(=O)OC)c3ccccc23)C(=O)N1C [Example 2001] | 170
